Data taken from article PMC10224335, “Purification, Identification, and Inhibitory Mechanisms of a Novel ACE Inhibitory Peptide from Torreya grandis” (Nutrients, 2023).
Where two headings read alike, the source gives them in different places. Peptide text beside a SMILES is read from it.

Tests used:
ACE = details: cited from earlier work; for IC50: read-out: IC50 of ACE inhibition
Text: The ACE inhibitory activity of the remaining peptides was low, and the inhibition rate was below 20%. Here, we measured the I ... || Based on the Lineweaver–Burk plot analysis, the inhibitory mechanism of VW-7 on ACE was investigated. According to Table 3, the Vmax value decreased and the Km value increased as the peptide concentration increased. […] When the peptide binds to ...

cells = details: treatment with 25–100 µg/mL; cited from earlier work
Text: NO is a messenger molecular medium that provides multiple functions in biological tissues. Previous studies have shown that the production of NO is one of the potential mechanisms for the prevention and treatment of hypertension. Inhibiting ACE can prevent vasodilator breakdown and directly stimulate endothelial cells to produce NO [16]. We cultured EA.hy926 cells in the medium and evaluated the intracellular NO in order to see how VW-7 affected the generation of NO in these cells.

EA.hy926 cells = assay: Cell viability, CCK-8; format: cell-based, Human; details: 0–400 μg/mL, 24 h
Experimental: (§1) Human umbilical vein endothelial cells (EA.hy926) were grown in DMEM with 10% FBS and 1% penicillin-streptomycin at 37 °C in a humidified environment of 5% CO2.
(§2) Using a cell counting kit-8 (CCK-8) kit, the cytotoxicity of the peptide VNDYLNW in EA.hy926 was assessed. In 96-well cell culture plates, cells were inoculated at a density of 5 × 10^3/well. After 24 h of pre-incubation at 37 ℃ and 5% CO2, 50 µL of peptides with different concentrations were added to achieve the final concentrations of solution of 100, 200, 400, 600, 800, and 1000 µg/mL (using complete medium as the control) for 24 h. Following treatment, the culture medium was removed, 100 µL of medium (without FBS) was added, and 10 µL of CCK-8 was then added to each well. The culture was incubated for 1 h at 37 ℃ and 5% CO2. Finally, the light absorption value at 450 nm was detected by the microplate reader. Relative cell viability was calculated according to Equation (3):(3) Cell viability%=(A − A0)/A1 − A0 × 100 where A1 is the absorbance of cells that are not treated with peptides, A is the absorbance of cells that are treated with peptides, and A0 is the absorbance of the group without cells in the medium.

Cell viability, CCK-8 = format: cell-based, Human; details: human, EA.hy926 cells
Experimental: as §1, §2

pepsin and trypsin = assay: Stability against simulated gastrointestinal digestion (pepsin, trypsin); format: in vitro ADME
Experimental: The simulated gastrointestinal digestion method was applied according to Li et al., with some modifications. In brief, pH 2.0 was adjusted for the VW-7 solution (ultrapure water, c = 0.4 mg/mL). The peptide solution was mixed with pepsin (2%, w/w) for 2 h at 37 °C. The pH was changed to 7.0 after the process, and half of the liquid was withdrawn. The other half was then given trypsin (2%, w/w) and digested at 37 °C for 2 h. Finally, the reaction was terminated by a boiling water bath, and the ACE inhibition rate of the two-step reaction products was measured.
RP-HPLC was used to analyze the liquid obtained after digestion. The mobile phase A was water containing 0.1% TFA, and the mobile phase B was 100% ACN containing 0.1% TFA. The flow rate was set to 1 mL/min, the detection wavelength was 214 nm, and the column temperature was 30 °C.

VTPVGVPKW
IC50 (ACE; peptide extracted from Black Cumin seeds): 1.8 µM

NMAINPSKENLCSTFCK
type of ACE inhibition (ACE; peptide from casein): mixed-type inhibition

VASVI [reported antihypertensive peptide from Olive Flounder Surimi]
production of NO in cells (cells): significantly increased

VDMF
IC50 (ACE; peptide extracted from Coix prolamin): 382 µM

EVSQGRP
type of ACE inhibition (ACE; peptides from sea cucumber): mixed-type inhibition

SAAVGSP
type of ACE inhibition (ACE; peptides from sea cucumber): mixed-type inhibition

CC(C)C[C@H](NC(=O)[C@H](Cc1ccc(O)cc1)NC(=O)[C@H](CC(=O)O)NC(=O)[C@H](CC(N)=O)NC(=O)[C@@H](N)C(C)C)C(=O)N[C@@H](CC(N)=O)C(=O)N[C@@H](Cc1c[nH]c2ccccc12)C(=O)O [VNDYLNW] (H-VNDYLNW-OH)
toxic effect on EA.hy926 cells (EA.hy926 cells): no toxic effect
toxic effect on EA.hy926 cells (EA.hy926 cells; listed as VW-7): no cytotoxicity
viability at 24 h, 600 µg/mL (Cell viability, CCK-8; 600 µg/mL, mean ± SD): 92.4 ± 2.4%
viability at 24 h (Cell viability, CCK-8; concentration above 600 µg/mL (up to 1000 µg/mL)): < 80%
ACE inhibitory action after gastrointestinal digestion (pepsin and trypsin; 0.4 mg/mL in ultrapure water, pH 2.0 pepsin 2% w/w 2 h 37 °C, then pH 7.0 trypsin 2% w/w 2 h 37 °C, read-out ACE inhibition rate, p > 0.05): remained essentially unaltered
RP-HPLC peak area after two-step digestion (pepsin and trypsin; 0.4 mg/mL, pepsin pH 2.0 2 h then trypsin pH 7.0 2 h, 37 °C, RP-HPLC, UV 214 nm): did not change

VSRHFASYAN
type of ACE inhibition (ACE; peptides from sea cucumber): mixed-type inhibition
